The record followed here is patent US20190328857A1, “CALR AND JAK2 VACCINE COMPOSITIONS” (IO Biotech ApS, priority 2016, published 2019).

Assay type in all cases: cell-based, human
Assay [1] deals with UKE-1 and THP-1 cells. Put plainly: ELISPOT of JAK201-specific T cells stimulated with cancer cell lines. The note with it: 100 U/ml IFN-γ 2 days before assaying. From the text:
(§1) Next, we examined the capacity of JAK201-specific T cells to recognize and kill cancer cells harboring the JAK2V617F mutation. UKE-1, SET-2 and THP-1 are acute myeloid leukemia cancer cell lines that are HLA-A2-positive. THP-1 cells are JAK2 wt, whereas UKE-1 cells are homozygous and SET-2 are heterozygous for the JAK2V617F mutation. We first examined JAK201-specific T-cells reaction towards the UKE-1 cancer cell line. […] IFN-γ is known to induce the immunoproteasome and to upregulate HLA class I on the cell surface overall enhancing the antigen presentation by the target cell.
Finally to confirm the recognition of cells expressing the JAK2V617F mutation, we transfected JAK2 wt THP-1 cells with mRNA encoding the JAK2V617F mutation using neural growth factor receptor (NGFR) encoding mRNA as control and used these cells as target cells in cytokine release and Granzyme B assays. […] More than 50% of patients with Philadelphia chromosomenegative chronic MPN harbor the JAK2V617F mutation. This acquired somatic mutation is found exclusively in myeloid malignancies, rendering it a cancer-specific antigen. JAK2V617F is consequently an attractive target for cancer immune therapy.

Assay [2] relates to UKE-1, SET-2 and THP-1 cells. Put plainly: Standard Cr^51 cytotoxicity assay with JAK201-specific T cells and cancer cell lines.
From the text: as §1
Then we examined the importance of the intracellular expression of the JAK2V617F mutation for the recognition of target cells by JAK201-specific T cells. Thus to silence the JAK2V617F mutation, we transfected UKE-1 cells with JAK2V617F siRNA and used the transfected cells as target cells, and compared the recognition with mock transfected UKE-1 cells as previously described. Silencer siRNA duplex for targeted silencing of JAK2V617F with 3′-end overhang dT bases in the antisense strand (sense sequence 5′-[…]-3′ (SEQ ID NO: 21), antisense sequence 5′-[…]-3′ (SEQ ID NO: 22) for duplex 1; and sense sequence 5′-[…]-3′ (SEQ ID NO: 23), antisense sequence 5′-[…]-3′ (SEQ ID NO: 24) for duplex 2) were obtained from Invitrogen (Invitrogen, Paisley, UK). […]

Assay [3] concerns autologous CALRmut cells. As to the kind of experiment: Intracellular cytokine staining of CALRLong1-specific T cells stimulated with autologous target cells. Conditions: IFN-γ 300 U/ml for 24 h. The procedure: As target cells, we used autologous CD14^+ monocytes and B-cells (BCL). As described above, CD14^+ monocytes were isolated using the MACS CD14 MicroBead kit. An autologous B-cell line was generated using EBV transfection of donor BCL at the Health Protection Agency Culture Collections, Salisbury, UK.
Frozen T-cells were thawed one day prior to assaying, and in experiments examining CD107a expression, a CD107a-PE antibody was added to cells directly after addition of peptide or target cells. After one hour of stimulation, protein-transport inhibitor Brefeldin A (BD Biosciences, San Jose, Calif., USA) was added to the cells which were then stimulated for four h. Cells were stained with CD3-APC-H7, CD4-FITC, CD8-PerCP, IFN-γ-APC, TNF-α-BV421 and Fixable Viability Stain 510 (BD Biosciences, San Jose, Calif., USA), permeabilized and washed with Permeabilization Reagent/Diluent and fixation-permeabilization buffer (AH Diagnostics, Aarhus, Denmark). Cells were acquired with a FACS Canto II (BD Biosciences) and analyzed using FACSDiva software. All effector cell stimulations were run in triplicate wells if not otherwise specified.
Autologous CD14^+ monocytes were cultured with CellGro, GM-CSF (1000 U/ml) and IL-4 (250 U/mL) and transfected with either CALR siRNA or negative-control siRNA (Invitrogen) the next day, using electroporation parameters as described previously (Met et al., 2011). In brief, monocytes were washed twice, suspended in Opti-MEM medium (Invitrogen) and adjusted to a final cell density of 10^7 cells/ml. The cell suspension (200 μl) was preincubated for 5 min on ice and subsequently, together with 5 μl of CALR siRNA or 10 μl of negative control siRNA transferred to a 2-mm gap electroporation and pulsed using a BTX 830 square-wave electroporator (Harvard Apparatus, Holliston Mass., USA). Electroporation settings were adjusted to a single pulse, 250 V, 2 ms. […]
As target cells, we used CD14^+ monocytes with CALRmut allelic burden of 71% and autologous EBV-transformed immortalized B-cells with a CALRmut allelic burden of 0% determined by PCR analysis. […]

“IFN-γ: cytokine used to pretreat target cells to enhance antigen presentation”: in assay [1], the “effect of pretreatment of UKE-1 cells on IFN-γ release from the T cells” value is on record as “even greater release”. In assay [2] (IFN-γ stimulation), the “lysis of SET-2 cells after stimulation” value was “likewise lysed”. In assay [2] (IFN-γ treatment), the “effect of treatment of UKE-1 cells on lysis” value is recorded as “augmented”. Moreover, in assay [3], the “effect of target cell stimulation on T-cell activation, B-cells” value is reported as “no change in activation” and the “effect of target cell stimulation on T-cell activation, CALRmut monocytes” value is reported as “significantly enhanced”.
